# Assay results as given in patent publication US20260256792A1, “TREATMENT OF CHRONIC SPONTANEOUS URTICARIA BY ADMINISTERING (R)-2-[3-[4-AMINO-3-(2-FLUORO-4-PHENOXY-PHENYL)PYRAZOLO[3,4-D]PYRIMIDIN-1-YL]PIPERIDINE-1-CARBONYL]-4-METHYL-4-[4-(OXETAN-3-YL)PIPERAZIN-1-YL]PENT-2-ENENITRILE” (priority 2023, published 2026).
# System: moderate-to-severe chronic spontaneous urticaria (CSU)
# Experiment: Phase 2 CSU study: urticaria activity score over 7 days (UAS7)
# Format: in vivo, human
# Set-up: key to UAS7 Median / UAS7 Change from baseline Median / UAS7 change from baseline, Q1 / UAS7 change from baseline, Q3 / UAS7 change from baseline, Max / UAS7 Change from baseline LS Mean (SE): UAS7 points; daily UAS score ranges 0–6 points/day, over 7 days
# Description: The study comprises a 12 week, randomized, double-blind, placebo-controlled, multi-center, dose-ranging efficacy and safety phase, followed by a 40 week open label extension (OLE) phase (see FIG. 1). The study consists of three phases and an optional OLE phase. […] Clinically, CSU is characterized by the spontaneous and recurrent appearance of pruritic hives. The proposed primary endpoints were the UAS7 at Week 12 in EU and EU reference countries and the ISS7 in the US. Regardless of where a participant was from, all assessments were the same. The UAS7 score is a composite score containing both the HSS7 and the ISS7. This allowed a global assessment of the two key components of urticaria: hives and itch. […] The UAS is a validated PRO measure. […] The daily UAS scores range from 0 to 6 point/day. […] Patients were to complete the UAS using the e-diary. […] The following secondary endpoints were to be analyzed using the same approach as for the primary endpoint: • Change from baseline in UAS7 at Week 4 • Change from baseline in UAS7 at Week 12 (for US and US reference countries) • Change from baseline in ISS7 at Week 12 (except US and US reference countries) • Change from baseline in HSS7 at Week 12 The following responder secondary endpoints were to be analyzed using the Cochran-Mantel-Haenszel test adjusted by region: • Proportion of participants with UAS7<6 at Week 12 • Proportion of participants with UAS7=0 at Week 12 Participants who received selected prohibited medications and/or rescue medications were to be considered as non-responders for time points after the medication usage. For other participants, all available data including those collected during the off-treatment period were to be used to determine the responder/non-responder status. Missing data were to be considered as non-responders.
# [1] = Omalizumab-Naïve Population, 400 mg BID, Week 1
# [2] = Omalizumab-Naïve Population, 400 mg BID, Week 2
# [3] = Omalizumab-Naïve Population, 400 mg BID, Week 3
# [4] = Omalizumab-Naïve Population, 400 mg BID, Week 4
# [5] = Omalizumab-Naïve Population, 400 mg BID, Week 12
# [6] = Omalizumab-Naïve Population, 400 mg QPM, Week 1
# [7] = Omalizumab-Naïve Population, 400 mg QPM, Week 2
# [8] = Omalizumab-Naïve Population, 400 mg QPM, Week 3
structure (smiles),measurement,setting,value
"CC(C)(C=C(C#N)C(=O)N1CCC[C@@H](n2nc(-c3ccc(Oc4ccccc4)cc3F)c3c(N)ncnc32)C1)N1CCN(C2COC2)CC1 [rilzabrutinib, (R)-2-[3-[4-amino-3-(2-fluoro-4-phenoxy-phenyl)pyrazolo[3,4-d]pyrimidin-1-yl]piperidine-1-carbonyl]-4-methyl-4-[4-(oxetan-3-yl)piperazin-1-yl]pent-2-enenitrile]",UAS7 Post-baseline Mean (SD),"Omalizumab-Naïve Population with Outlier Removed, 400 mg QPM, Week 2",23.44 (8.97)
same,UAS7 Post-baseline Mean (SD),"Omalizumab-Naïve Population with Outlier Removed, 400 mg QPM, Week 3",22.01 (9.00)
same,UAS7 Post-baseline Mean (SD),"Omalizumab-Naïve Population with Outlier Removed, 400 mg QPM, Week 4",21.92 (8.82)
same,UAS7 Post-baseline Mean (SD),"Omalizumab-Naïve Population with Outlier Removed, 400 mg QPM, Week 5",20.63 (9.18)
same,UAS7 Post-baseline Mean (SD),"Omalizumab-Naïve Population with Outlier Removed, 400 mg QPM, Week 6",20.21 (10.42)
same,UAS7 Post-baseline Mean (SD),"Omalizumab-Naïve Population with Outlier Removed, 400 mg QPM, Week 7",21.11 (10.03)
same,UAS7 Post-baseline Mean (SD),"Omalizumab-Naïve Population with Outlier Removed, 400 mg QPM, Week 9",20.25 (10.25)
same,UAS7 Post-baseline Mean (SD),"Omalizumab-Naïve Population with Outlier Removed, 400 mg QPM, Week 10",20.27 (10.69)
same,UAS7 Post-baseline Mean (SD),"Omalizumab-Naïve Population with Outlier Removed, 400 mg QPM, Week 11",21.17 (11.16)
same,UAS7 Post-baseline Mean (SD),"Omalizumab-Naïve Population with Outlier Removed, 400 mg TID, Week 1",18.29 (9.93)
same,UAS7 Post-baseline Mean (SD),"Omalizumab-Naïve Population with Outlier Removed, 400 mg TID, Week 2",16.03 (10.59)
same,UAS7 Post-baseline Mean (SD),"Omalizumab-Naïve Population with Outlier Removed, 400 mg TID, Week 3",15.20 (9.97)
same,UAS7 Post-baseline Mean (SD),"Omalizumab-Naïve Population with Outlier Removed, 400 mg TID, Week 4",14.65 (9.61)
same,UAS7 Post-baseline Mean (SD),"Omalizumab-Naïve Population with Outlier Removed, 400 mg TID, Week 5",13.41 (10.60)
same,UAS7 Post-baseline Mean (SD),"Omalizumab-Naïve Population with Outlier Removed, 400 mg TID, Week 6",14.10 (11.23)
same,UAS7 Post-baseline Mean (SD),"Omalizumab-Naïve Population with Outlier Removed, 400 mg TID, Week 7",13.54 (9.34)
same,UAS7 Post-baseline Mean (SD),"Omalizumab-Naïve Population with Outlier Removed, 400 mg TID, Week 8",13.36 (9.81)
same,UAS7 Post-baseline Mean (SD),"Omalizumab-Naïve Population with Outlier Removed, 400 mg TID, Week 9",12.57 (9.72)
same,UAS7 Post-baseline Mean (SD),"Omalizumab-Naïve Population with Outlier Removed, 400 mg TID, Week 10",12.61 (9.89)
same,UAS7 Post-baseline Mean (SD),"Omalizumab-Naïve Population with Outlier Removed, 400 mg TID, Week 12",11.00 (9.90)
same,UAS7 % Change difference for rilzabrutinib vs. placebo LS Mean (95% CI),[1],−25.01%
same,UAS7 % Change from baseline LS Mean (SE),[1],−34.48 (5.64) %
same,UAS7 Change difference for rilzabrutinib vs. placebo LS Mean (95% CI),[1],−6.24
same,UAS7 Change from baseline LS Mean (SE),[1],−9.79 (1.58)
same,UAS7 Post-baseline Mean (SD),[1],19.77 (11.32)
same,UAS7 % Change difference for rilzabrutinib vs. placebo LS Mean (95% CI),[2],−18.28%
same,UAS7 % Change from baseline LS Mean (SE),[2],−36.05 (5.50) %
same,UAS7 Change difference for rilzabrutinib vs. placebo LS Mean (95% CI),[2],−4.55
same,UAS7 Change from baseline LS Mean (SE),[2],−10.44 (1.57)
same,UAS7 Post-baseline Mean (SD),[2],19.59 (10.86)
same,UAS7 % Change difference for rilzabrutinib vs. placebo LS Mean (95% CI),[3],−20.16%
same,UAS7 % Change from baseline LS Mean (SE),[3],−40.11 (5.66) %
same,UAS7 Change difference for rilzabrutinib vs. placebo LS Mean (95% CI),[3],−5.04
same,UAS7 Change from baseline LS Mean (SE),[3],−11.96 (1.67)
same,UAS7 Post-baseline Mean (SD),[3],17.71 (11.91)
same,UAS7 % Change difference for rilzabrutinib vs. placebo LS Mean (95% CI),[4],−23.20%
same,UAS7 % Change from baseline LS Mean (SE),[4],−43.62 (5.88) %
same,UAS7 Change difference for rilzabrutinib vs. placebo LS Mean (95% CI),[4],−5.82
same,UAS7 Change from baseline LS Mean (SE),[4],−12.89 (1.73)
same,UAS7 Post-baseline Mean (SD),[4],15.92 (11.71)
same,UAS7 Post-baseline Mean (SD),"Omalizumab-Naïve Population, 400 mg BID, Week 5",17.22 (13.36)
same,UAS7 Post-baseline Mean (SD),"Omalizumab-Naïve Population, 400 mg BID, Week 6",17.02 (12.76)
same,UAS7 Post-baseline Mean (SD),"Omalizumab-Naïve Population, 400 mg BID, Week 7",15.55 (11.97)
same,UAS7 Post-baseline Mean (SD),"Omalizumab-Naïve Population, 400 mg BID, Week 8",13.98 (13.06)
same,UAS7 Post-baseline Mean (SD),"Omalizumab-Naïve Population, 400 mg BID, Week 9",14.64 (14.43)
same,UAS7 Post-baseline Mean (SD),"Omalizumab-Naïve Population, 400 mg BID, Week 10",15.22 (14.36)
same,UAS7 Post-baseline Mean (SD),"Omalizumab-Naïve Population, 400 mg BID, Week 11",15.06 (13.80)
same,UAS7 % Change difference for rilzabrutinib vs. placebo LS Mean (95% CI),[5],−17.85%
same,UAS7 % Change from baseline LS Mean (SE),[5],−48.13 (6.91) %
same,UAS7 Change difference for rilzabrutinib vs. placebo LS Mean (95% CI),[5],−4.09
same,UAS7 Change from baseline LS Mean (SE),[5],−14.24 (2.06)
same,UAS7 Post-baseline Mean (SD),[5],15.61 (13.91)
same,UAS7 % Change difference for rilzabrutinib vs. placebo LS Mean (95% CI),[6],−12.19%
same,UAS7 % Change from baseline LS Mean (SE),[6],−21.67 (5.45) %
same,UAS7 Change difference for rilzabrutinib vs. placebo LS Mean (95% CI),[6],−3.51
same,UAS7 Change from baseline LS Mean (SE),[6],−7.06 (1.52)
same,UAS7 Post-baseline Mean (SD),[6],23.81 (8.78)
same,UAS7 % Change difference for rilzabrutinib vs. placebo LS Mean (95% CI),[7],−6.60%
same,UAS7 % Change from baseline LS Mean (SE),[7],−24.37 (5.29) %
same,UAS7 Change difference for rilzabrutinib vs. placebo LS Mean (95% CI),[7],−1.81
same,UAS7 Change from baseline LS Mean (SE),[7],−7.71 (1.52)
same,UAS7 Post-baseline Mean (SD),[7],23.44 (8.97)
same,UAS7 % Change difference for rilzabrutinib vs. placebo LS Mean (95% CI),[8],−8.98%
same,UAS7 % Change from baseline LS Mean (SE),[8],−28.93 (5.48) %
same,UAS7 Change difference for rilzabrutinib vs. placebo LS Mean (95% CI),[8],−2.17
same,UAS7 Change from baseline LS Mean (SE),[8],−9.10 (1.61)
